Non-standard residues stand in square brackets, D forms with d. Residues, ends and D or L forms follow the SMILES beside them. Dopa = N[C@@H](Cc1ccc(O)c(O)c1)C(=O)O
Key:
S100A9 amyloid fibrils = assay: AFM imaging of S100A9 fibrils, fibril height distributions; type: biochemical; conditions: PBS pH 7.4, 42 °C; for S100A9 fibril morphology change (AFM): molar ratio 1:1; for median height of S100A9 fibrils (AFM): molar ratio 1:10, text, S100A9 alone ca. 1.6 nm
Protocol: In order to complement the kinetic analysis, we also monitored the S100A9 amyloid formation by AFM imaging (Figure 3). The amyloid fibrils of S100A9 alone that developed after 100 h of incubation in PBS, pH 7.4, and 42 °C were very flexible, relatively short, i.e., within 200–600 nm length, and also characterized by a narrow distribution of the heights with a median at ca. 1.6 nm in the AFM cross-sections. In the presence of all DOPA-based compounds, the fibrils of S100A9 become thicker with median heights of ca. 2.0–2.2 nm, and generally longer (Figure 3). […] At the molar ratio of S100A9 to DOPA-based compounds of 1:10, the height of fibrils became even thicker, shifting towards 2.2–2.8 nm median height and in the case of DOPA-D-H-DOPA to 3.0–3.2 nm (Figure 3), while their lengths remained about the same as at the 1:1 molar ratio.
Figure 3 AFM imaging of S100A9 fibrils in the absence and presence of DOPA and cyclen-based compounds and the analysis of fibril height distributions. (a) Representative AFM image of S100A9 fibrils incubated alone. (b,c) Distribution of fibril heights measured in AFM cross-sections. The same distribution is shown in both columns to facilitate the comparison with the following height distributions carried out in the presence of compounds. (d,g,j,m,p) Representative AFM images of S100A9 fibrils in the presence of DOPA and cyclen-based compounds at a 1:1 molar ratio of S100A9 to compound. (e,h,k,n,q) Distributions of fibril heights measured in AFM cross-sections at the S100A9 to compound molar ratio of 1:1 and (f,i,l,o,r) at molar ratio of 1:10. Image sizes are 2.5 × 2.5 μm. The compounds and molar ratios are indicated above the figures. Samples were incubated for 50 h in PBS, pH 7.4, and 42 °C. […]
S100A9 protein was expressed in E. coli and purified as described previously. Freshly dissolved S100A9 in PBS, pH 7.4 was used in all measurements. Lyophilized S100A9 was dissolved on ice in PBS buffer at pH 7.4. Then, S100A9 samples were filtered using a 0.22 µm spin membrane filter to remove any preformed aggregates. These solutions were directly subjected to experiments. To produce amyloids, S100A9 was incubated in PBS, pH 7.4, and 42 °C. The cyclic compounds (Figure 1) were dissolved in PBS at pH 7.4, and their stock solutions were kept frozen prior to measurements.
AFM imaging was performed by using a BioScope Catalyst AFM (Bruker; Phoenix, AZ, USA), operating in a peak force mode in air. The scan rate was 0.51 Hz and the resolution was 512 × 512 pixels. Bruker MSLN and SLN cantilevers were used in all measurements. Imaging was also conducted using a PicoPlus AFM (Molecular Imaging), equipped with a 100 μm scanner, operating in tapping mode in air. The resonance frequency was set in 170 to 190 kHz range, scan rate of 1 Hz, and resolution of 512 × 512 pixels. […]

S100A9 [1] = target: T1, S100A9 (Homo sapiens, UniProt P06702); assay: ThT fluorescence kinetics of S100A9 amyloid formation in the presence of compounds; type: biochemical; conditions: for k, kinetic rate constant of S100A9 amyloid formation: 75 μM S100A9, 20 µM ThT, PBS pH 7.4, 42 °C, isodesmic polymerization fit, triplicate; for k/kS100A9: 75 μM S100A9, PBS pH 7.4, 42 °C
T1 construct: made in house; host or cells: E. coli
T1 sequence (P06702 1-114): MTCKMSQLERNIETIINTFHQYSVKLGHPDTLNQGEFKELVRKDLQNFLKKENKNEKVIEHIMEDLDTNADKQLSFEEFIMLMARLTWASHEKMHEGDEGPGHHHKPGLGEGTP
Excerpt: The amyloid formation of S100A9 in the absence and presence of DOPA and cyclen-based compounds was monitored by ThT fluorescence and is presented in Figure 2. The amyloid formation correlates with the increase of the ThT fluorescence, and the initial parts of the fibrillation kinetic curves were fitted by using an isodesmic polymerization model to derive the kinetic rates; this model has previously been used in kinetic analysis of S100A9 amyloid self-assembly.
Figure 2 Kinetics of S100A9 amyloid formation in the absence and presence of DOPA and cyclen-based compounds monitored by ThT fluorescence. (a) Amyloid kinetics monitored at the ratio of S100A9 to corresponding compound of 1:1 and (b) 1:10, respectively. Symbols indicating the experimental data points for S100A9 alone or with respective compounds are shown in the caption and the corresponding lines indicate the fitting with the isodesmic polymerization model. The equation for isodesmic polymerization fitting is shown in ((b) inset). 75 μM S100A9, PBS, pH 7.4, and 42 °C.
ThT dye is known to bind specifically to β-sheet-containing amyloid structures and thus enables quantification of the kinetics of amyloid self-assembly. ThT assay was performed as described previously. First, 75 μM S100A9 was transferred into Nunc 96U black well plates with transparent bottoms and then 20 µM ThT was added to each well. The compounds dissolved in PBS were added to S100A9 solution with molar ratios of 1:1 and 1:10, respectively. Sample volumes were kept at 200 μL per well. The plates were immediately covered, placed into a Tecan F200 PRO plate reader, and incubated at 42 °C with 432 rpm orbital shaking every 10 min. ThT fluorescence was recorded every 10 min. Filters at 430 and 495 nm wavelengths with a 20 nm band width each were used for excitation and emission, respectively. Each sample was incubated in triplicate. ThT fluorescence intensities were normalized.

S100A9 [2] = target: T1, S100A9; assay: Titration of S100A9 with compounds followed by intrinsic fluorescence; conditions: intrinsic Trp 88 fluorescence, single binding site model, legend: 75 μM S100A9, PBS pH 7.4, 20 °C, method: 1 μM S100A9, 5 nM to 2.4 μM compound, 3 h room temperature, triplicates; for Kd: read-out: apparent dissociation constant Kd
Protocol: S100A9 was titrated by each compound of interest following the changes in intrinsic fluorescence intensity, since S100A9 has one aromatic residue: Trp 88. The fitting was performed using a single binding site model to determine the apparent dissociation constant for each compound. […] A twice larger Kd was determined only for DOPA-D-H-DOPA binding.
Figure 4 Binding of DOPA and cyclen-based compounds to native S100A9 followed by intrinsic fluorescence. (a–e) Normalized titrations of S100A9 by corresponding compounds. Each compound is indicated above corresponding figure (a–e) and their Kd in captions. Symbols indicate the experimental data points and lines the fitting with a single binding site model. 75 μM S100A9, PBS, pH 7.4, and 20 °C.
First, 1 μM S100A9 was incubated in PBS, pH 7.4, room temperature for 3 h in the absence or presence of 5 nM to 2.4 μM of the studied compounds prior to fluorescence measurements. The final volume was kept at 400 μL for all samples. The fluorescence emission spectra were recorded using a Jasco spectrofluorometer FP 6500 (Japan), setting the excitation at 296 nm and emission at 350 nm wavelengths, respectively, with a 3 nm band-width on both the excitation and emission. The measurements were performed in triplicates. Fitting of the normalized titration curves was performed by using a single site binding model.

[3] = ThT incubation of individual compounds (amyloid self-assembly of the compounds); type: physicochemical; conditions: 75 μM compound, PBS pH7.4, 42 °C, same period as S100A9 kinetics
Protocol: Figure S1. Time dependence of Thioflavin-T fluorescence changes during its incubation with S100A9 and DOPA and Cyclen-based compounds. Thioflavin-T fluorescence in arbitrary units is shown along y-axis, time in minutes – along x-axis. Increase in Thioflavin-T fluorescence in the presence of 75 μM S100A9 reflects its amyloid self-assembly and shown in brown. By contrast, there were no increase in Thioflavin-T fluorescence upon incubation with 75 μM of corresponding compounds as […]
green line, for DOPA-H-H-DOPA – by orange, DOPA-D-H – by chartreuse, H-E-Cyclen – by red and […]
assembly of these compounds under the conditions of our experiments. PBS, pH7.4 and 42 °C.
(1 picture or pasted object on this page, not shown here)

| Compound | S100A9 fibril morphology change (AFM) (S100A9 amyloid fibrils) | median height of S100A9 fibrils (AFM) (S100A9 amyloid fibrils) | k, kinetic rate constant of S100A9 amyloid formation (S100A9 [1]; S100A9:compound 1:1) [M⁻¹ s⁻¹] | k/kS100A9 (S100A9 [1]; S100A9:compound 1:1) | k, kinetic rate constant of S100A9 amyloid formation (S100A9 [1]; S100A9:compound 1:10) [M⁻¹ s⁻¹] | k/kS100A9 (S100A9 [1]; S100A9:compound 1:10) | apparent dissociation constant Kd (S100A9 [2]) | ThT fluorescence upon incubation of compound alone (amyloid self-assembly) [3] | Kd (S100A9 [2]) [nM] |
| --- | --- | --- | --- | --- | --- | --- | --- | --- | --- |
| N[C@@H](Cc1ccc(O)c(O)c1)C(=O)N[C@@H](CC(=O)O)C(=O)N[C@@H](Cc1c[nH]cn1)C(=O)N[C@@H](Cc1ccc(O)c(O)c1)C(=O)O [DOPA-D-H-DOPA] (H-[Dopa]DH[Dopa]-OH) | tended to clump together, forming large clustered aggregates | 3.0–3.2 nm | 60000 | 0.91 | 66000 | 1 | sub-micromolar range | flat lines close to zero | – |
| N[C@@H](Cc1ccc(O)c(O)c1)C(=O)N[C@@H](CC(=O)O)C(=O)N[C@@H](Cc1c[nH]cn1)C(=O)O [DOPA-D-H] (H-[Dopa]-Asp-His-OH) | tended to clump together, forming large clustered aggregates | – | 63000 | 0.95 | 45000 | 0.69 | sub-micromolar range | flat lines close to zero | 110 ± 40 |
| N[C@@H](Cc1ccc(O)c(O)c1)C(=O)N[C@@H](Cc1c[nH]cn1)C(=O)N[C@@H](Cc1c[nH]cn1)C(=O)N[C@@H](Cc1ccc(O)c(O)c1)C(=O)O [DOPA-H-H-DOPA] (H-[Dopa]HH[Dopa]-OH) | – | – | 77000 | 1.17 | 134000 | – | sub-micromolar range | flat lines close to zero | – |
| O=C(CN1CCNCCNCCNCC1)N[C@@H](Cc1ccc(O)c(O)c1)C(=O)O [DOPA-cyclen] | – | – | 62000 | 0.93 | 133000 | – | sub-micromolar range | flat lines close to zero | 100 ± 40 |
| O=C(O)CC[C@H](NC(=O)CN1CCNCCNCCNCC1)C(=O)N[C@@H](Cc1c[nH]cn1)C(=O)O [H-E-cyclen] | did not lead to thickening of amyloid fibrils | 2.0 nm | 69000 | 1.05 | 48000 | 0.72 | sub-micromolar range | flat lines close to zero | 90 ± 50 |
